Publication PMC12040169 (PLOS Biology, 2025)

What was measured:
[1] = tested on: T1, C. trachomatis L2/434/Bu expressing GFP (CTL2-GFP); test: microbe, parasite or virus in culture; design: C. trachomatis total inclusion area by high-content imaging, normalised to DMSO; conditions: Chlamydia trachomatis, HeLa, 28.5 h; total inclusion area; read-out: % of control remaining
T1 construct: L2/434/Bu GFP intracellular growth in HeLa cells
Description: We screened a library of 36,785 small molecules displaying drug-like properties and covering a wide chemical space (Fig 1A and S2A Data). In this process, we also complemented the assay described above with an imaging-based readout (Fig 1B). After measurements of bulk GFP and resorufin fluorescence, cells were fixed, stained with the DNA dye Hoechst, and imaged at a high-content imaging platform to detect chlamydial inclusions (GFP) and host cell nuclei (Hoechst). The total area and number of inclusions in individual wells and the number of nuclei then served as additional proxies for chlamydial growth and host cell viability. […] MICs were calculated as described above.

[2] = tested on: T2, CTL2-GFP (C. trachomatis L2/434/Bu, GFP-expressing); test: microbe, parasite or virus in culture; design: Intracellular C. trachomatis growth in HeLa cells, bulk GFP fluorescence relative to DMSO; conditions: Chlamydia trachomatis, HeLa, 28.5 h; bulk GFP, mean of 2; read-out: % of control remaining
T2 construct: L2/434/Bu, GFP-expressing
Description: MICs were calculated as described above.

in vitro = test: in vitro; design: Viability of infected HeLa host cells, resazurin conversion, bulk resorufin fluorescence relative to DMSO; conditions: human, hela cells; bulk resorufin, mean of 2

| Compound | activity at 1 µM [1] | activity at 5 µM [1] | activity at 10 µM [1] | activity at 1 µM [2] | activity at 5 µM [2] | activity at 10 µM [2] | viability at 28.5 h, 1 µM (in vitro) | viability at 28.5 h, 5 µM (in vitro) | viability at 28.5 h, 10 µM (in vitro) |
| --- | --- | --- | --- | --- | --- | --- | --- | --- | --- |
| c1ccc(CNc2nnc(-c3ccccc3)s2)cc1 [CBK074928] | 68.4% | 34.4% | 26.9% | 92.7% | 77.6% | 65.1% | 95% | 91.9% | 104% |
| CC(C)Nc1nc2cc(Cl)c(Cl)cc2nc1Sc1cccc(O)c1 [CBK093732] | 129% | 50.2% | 35.1% | 124% | 94.8% | 55.6% | 95.8% | 88% | 100% |
| CC(C)(N)CNC(=O)c1cc(C(C)(C)C)nn1Cc1ccc(Cl)cc1Cl [CBK107296] | 87.7% | 54.2% | 26.9% | 115% | 76.6% | 36% | 91.1% | 95.2% | 93.8% |
| COc1ccc2[nH]cc(CCNC(=O)c3ccc(Cl)c(Cl)c3)c2c1 [CBK115870] | 109% | 78.8% | 40.9% | 132% | 66.5% | 33.8% | 93.3% | 88.8% | 92.1% |
| O=C(Nc1ccc2[nH]ccc2c1)c1ccccc1Nc1cccc(C(F)(F)F)c1 [CBK149583] | 93.2% | 59.8% | 72.2% | 119% | 90% | 67.7% | 118% | 114% | 112% |
| O=C(NCC1CC1)c1ccc(N2CCN(C(=O)c3ccccc3C(F)(F)F)CC2)nn1 [CBK153220] | 146% | 79.1% | 94.4% | 149% | 123% | 138% | 104% | 93% | 95.9% |
| O=C(NCc1ccc([N+](=O)[O-])cc1)c1cccnc1NCc1ccc2c(c1)OCO2 [CBK153436] | 65.8% | 65.9% | 38.2% | 113% | 68.2% | 25.1% | 103% | 109% | 109% |
| O=C(Nc1ncc(-c2ccccc2)s1)c1cccc([N+](=O)[O-])c1 [CBK157055] | 86.4% | 88.1% | 56.9% | 110% | 86.9% | 76.9% | 114% | 102% | 114% |
| O=C(NCCc1c[nH]c2ccc(Cl)cc12)c1ccc(Cl)cc1Cl [CBK159750] | 91.9% | 68.5% | 6.32% | 88% | 40.4% | 8.46% | 95.1% | 93.9% | 98.4% |
| Cc1ccc(CNC(=O)OCc2cccnc2C)o1 [CBK200131] | 120% | 61.9% | 91.2% | 120% | 111% | 119% | 102% | 104% | 101% |
| Cn1cncc1C(=O)NCc1ccccc1 [CBK200199] | 111% | 106% | 69.3% | 95.8% | 109% | 110% | 114% | 107% | 104% |
| CC(C)NCC(O)Cn1c2c(c3ccccc31)CCc1c-2cnn1-c1ccccc1 (stereo not drawn) [CBK261107] | 102% | 73.8% | 19.6% | 101% | 105% | 19.8% | 87.2% | 89.4% | 82.4% |
| COc1cc(/C=N/c2cccc3c(/N=C/c4ccc(O)c(OC)c4)cccc23)ccc1O [CBK261224] | 114% | 68% | 40.8% | 120% | 67.3% | 44% | 89.7% | 86.7% | 81.8% |
| Cc1cc(C)nc(NS(=O)(=O)c2ccc(Nc3ccc4nonc4c3[N+](=O)[O-])cc2)n1 [CBK261444] | 130% | 121% | 67.5% | 132% | 92.2% | 60.3% | 92.5% | 86.4% | 79.7% |
| COc1ccc(C(=O)NNC(=O)/C=C/c2ccc(C(C)C)cc2)cc1 [CBK261697] | 121% | 97.3% | 48.1% | 111% | 98% | 43.2% | 95% | 95.5% | 94.3% |
| c1ccc(Oc2cccc(OCCCN3CCCCC3)c2)cc1 [CBK261781] | 122% | 69.2% | 23.4% | 131% | 133% | 74.4% | 103% | 97% | 101% |
| O=C(N/N=C\c1ccc([N+](=O)[O-])o1)c1nc(-c2ccccc2)cc(-c2ccccc2)n1 [CBK261958] | 4.65% | 0.0567% | 0% | 6.03% | 1.53% | 7.08% | 90% | 91.8% | 87.8% |
| CN(C)CCCNC(=O)c1ccc([N+](=O)[O-])o1 [CBK262118] | 104% | 60.7% | 34.6% | 133% | 80.5% | 42.1% | 97.2% | 98.6% | 104% |
| O=C(O)/C(=N\c1cccc2ccccc12)c1ccccc1 [CBK262224] | 69.5% | 62.2% | 32.2% | 80.4% | 66.5% | 49.9% | 87.4% | 88.7% | 96% |
| CC(Nc1cccc2ccccc12)C(=O)N/N=C/c1c(O)ccc2ccccc12 (stereo not drawn) [CBK262678] | 100% | 47.4% | 21% | 132% | 74.4% | 72.2% | 90.9% | 83% | 74.2% |
| COc1cc(NS(=O)(=O)c2ccc(Nc3nc(-c4sc(N)nc4C)cs3)cc2)nc(OC)n1 [CBK262796] | 110% | 55.3% | 28.8% | 106% | 58.4% | 32.6% | 93.6% | 92.2% | 88% |
| CCCCc1ccc(NC(=N)Nc2nc(C)cc(C)n2)cc1 [CBK262967] | 75.4% | 38.5% | 9.61% | 89.4% | 33.4% | 22% | 90.3% | 95.4% | 90% |
| OC(CN1CCOCC1)Cn1c(-c2ccccc2)c(-c2ccccc2)c2ccc3ccccc3c21 (stereo not drawn) [CBK263996G] | 101% | 73.2% | 61.6% | 113% | 96.6% | 91.1% | 90.5% | 92.4% | 89.5% |
| Cc1noc(NS(=O)(=O)c2ccc(NC(=O)COc3cccc(Br)c3)cc2)c1C [CBK264086] | 93.1% | 45.5% | 20.6% | 96.8% | 38.7% | 17.8% | 89.3% | 91.3% | 94.3% |
| Cc1ccc(C(=O)/C=C\Nc2ccc(S(=O)(=O)Nc3cc(C)nc(C)n3)cc2)cc1 [CBK264384] | 79.2% | 51.7% | 35.8% | 110% | 72.4% | 31.8% | 107% | 108% | 104% |
